The test system of data set [1] is CB6-F1 mice grafted with Balb/c splenic lymphocytes. Conditions: for Alive Day 8 / Optimal Dose: GVHR; for Alive Day 8 / Index: at optimal dose; for Optimal Dose: i.p. per diem for 7 days; for Index: spleen index vs syngeneic control, >1.3 = successful graft rejection. The source says:
Graft-vs-Host Reaction (GVHR)
The GVHR used for in vivo screening is a modification of the Simonsen's technique. The F1 hybrid host animal is grafted with immunocompetent spleens cells from a parent strain. The host spleen cells are incompatible to grafted donor cells but are themselves not competent to react against them (shared parental genetic determinants). The rejection mechanism in this model is, therefore, from the graft toward the host. The grafted cells, via intraperitoneal injection, migrate to the host's spleen. There they proliferate in response to the difference in genetic determinants inherited from the other parental strain. The index used to measure the success of the GVHR is spleenomegally (increased spleen weight due to cellular proliferation of grafted lymphocytes). An index of 1.0 is equivalent to the spleen weight of syngeneic grafted controls. An index >1.3 (graft index) is considered to be a successful graft rejection of the recipient animal. Any sample that prevents spienomegaly (<graft index) is considered as an immunosuppressive active. Likewise, enhancement of splenomegaly (>graft index) is due either to immunostimulatory synergy of the response or nonspecific immunostimulation. This assay is a cell-mediated type of response and is the direct in vivo correlate of the MLR.
The GVHR is widely used as an in vivo model in transplantation research laboratories. As in models for delayed sensitivity and allograft rejection, it also has clinical implications, especially in bone marrow transplantation. In this situation, immunocompetent lymphocytes transferred with the transplanted bone marrow cells can recirculate into the host bone marrow. These cells from the graft can react against the host (i.e., graft-vs-host disease) with deleterious consequences.
The highest test dose is selected from a previously determined maximum tolerated dose (MTD) resulting from a once only intraperitoneal (i.p.) injection of two animals/dose (e.g., 400, 100, 40 and 10 mg/kg) These animals are followed for five days to allow for possible toxic side effects of the test compound.
In the GVHR, male, CB6-F1 mice (H2^d+H2^b) are grafted by i.p. injection of 50×106 Balb/c (H2^d) splenic lymphocytes conditioned in high-glucose (4500 mg/L) Dulbecco's modified Eagles medium. […] Grafted positive controls, nongrafted negative controls and syngeneic grafted animals all receive vehicle i.p. injections during this time. A standard of cyclophosphamide (200 mg/kg) is used. Experimental animals are sacrificed on D8 and spleens removed. The data is reported as a spleen index compared to the weight of the syngeneic control spleen—both corrected for the total body weights of the animals. In addition, the spleens are homogenized and the lymphocytes enumerated and viabilities determined. The data from both determinations are also expressed as a percent immunomodulation of the positive controls. all data is corrected for nonspecific effects measured from nongrafted animals. Moribund animals are sacrificed immediately.

Data set [2] has as its system murine lymphocytes (Balb/c). Briefly: Lymphocyte Viability / Cytotoxicity Assay (LcV), MTT. Conditions: Balb/c lymphocytes, MTT viability (cytotoxicity). Format: cell-based. As for the experimental part:
(§1) Lymphocyte Cytotoxicity (LcV) Assay
(§2) The LCV is a in vitro cytotoxicity assay for murine lymphocytes designed by the investigator. The LCV is similar to the MLR with the exception that only one cell population (Balb/c) is incubated with the test compound to assess cytotoxicity as distinct from the antiproliferative effects of a test compound. That is, unlike the unambiguous determination of immunostimulation from MLR data, a judgement of immunosuppression can not be immediately interpreted. Cytotoxicity (e.g., due to direct cell lysis) from a compound can occur which would alter viability determinations inherent in the generation of MLR data. […] The percent viable cells is determined by the MTT-thiazolyl blue method after a similar incubation to the MLR of lymphocytes with the test sample. MTT is a substrate converted by mitochoridrial enzymes in living cells to a purple, water-insoluble, formazan crystal. If there is no significant reduction in cell viability, as determined by this detection method, then damaged cells are probably not present for low data values generated in the MLR. Colorimetric data from the LCV is calculated as a percentage of viability, relative to control, using the following formula: [formula]
(§3) A 50% viability, or 50% cytotoxicity, (IC50) value was interpolated for sesbanimide containing fractions tested.
(§4) Lymphocytes are prepared as described above for the MLR with the exception that cells from only one murine strain are prepared (BLAB/c). Reconstituted extract (10 μl) is added in two sets of duplicates into wells of a 96-well microtiter plate and evaporated to dryness at room temperature. Lymphocytes (2.5×10^6 cells/ml) are added to one set of duplicates and to wells containing no sample. Media containing no cells are added to the other set of duplicates to provide background color control data. Plated are incubated in a 5% CO2 incubator for 4 hours and pulsed with MTT-thiazolyl blue for 6-8 hours.

Test in data set [3]: as above
It is filed as cell-based, murine. As to conditions: Balb/c, mouse, murine lymphocytes (Balb/c); text summary of Table 4. As for the experimental part: as §1, §2, §3, §4

The next data set concerns CD-1 or CB6F1 Mice. The data set is described as follows: Toxicology (MTD, LD50) in mice. Format: in vivo, mouse. As for the experimental part:
(§5) The MTD establishes the parameters to establish in vivo dosages initiated for studying the Graft-v-Host reaction and skin grafting. The Swiss conventional mouse (Charles River CD-1) is used in a weight range from 18-30 g.
(§6) A saline solution containing 5% non-denatured EtOH and a drop of Tween-80 detergent is used a vehicle for dilution. Stirring and sonication are utilized to effect solution or suspension of the composition. The composition is injected within one hour of preparation. Animals are observed for five days (MTD) after injection for toxic symptoms and/or death. Group weights are taken D0 and D5. Surviving animals are sacrificed on D5 (MTD). A ‘Daily Logsheet’ used in the toxicity studies is appended.

Data set [4] can be described thus: Toxicology (MTD, LD50) in mice. Format: in vivo, mouse. As to conditions: mouse, in vivo; CD-1 or CB6F1 mice. As for the experimental part: as §5, §6
For data set [5], the system named is mixed lymphocytes from Balb/c (H-2d) and C57BI/6 (H-2b) mice. The data set is described as follows: Murine Mixed Lymphocyte Reaction (MLR), 3H-thymidine incorporation. It is filed as cell-based. As to conditions: for IC50: Mus musculus, Lymphocyte; for Index Cytotox./Activity: ratio LcV IC50 / MLR IC50. Here is the method:
Mixed Lymphocyte Reaction (MLR)
The MLR is an in vitro test of cellular immunity in which murine lymphocytes from genetically dissimilar animals are cocultured to mutually induce cell proliferation (i.e., two-way MLR method). Mixed cell suspensions, together with the test compound, are incubated for 96 hours and subsequently pulsed for 15 hours with tritiated-thymidine (3H-Thy), a radioisotopically labelled nucleic acid. Tritiated-thymidine is incorporated into the DNA of proliferating cells. Data from the MLR is generated as dpm of radioactivity which is then expressed as a percentage of cellular activity, relative to control, using the following reduced formula: [formula]
A 50% inhibitory concentration (IC50) value was interpolated for sesbanimide containing fractions tested. A ratio between cytotoxicity, as determined from the LcV described below, and activity in the MLR is also presented. A high ratio distinguishes noncytotoxic immunosuppression from general cytotoxicity.
Reconstituted extract (10 μl) is added in two sets of duplicates into wells of a 96-well microtiter plate and evaporated to dryness at room temperature. […] To the other set of sample duplicates is added complete media without cells so as to provide for background color control data. All plated are incubated in a 5% CO2 incubator for 96 hours and pulsed for 15 hours with 100 μl containing 1 μCi/well tritiated-thymidine (^3H-Thy). The plates are harvested onto glass fiber filter discs using an INOTECH harvester. The filter discs are counted directly using an INOTECH dry scintillation counter. The activity of the discs are calculated as a relative proliferative percent of a mean control value as described above.

In data set [6] the test system is Agrobacterium species strain PH-103. Briefly: Antibiotic sensitivity (Difco sensitivity discs). As to conditions: strain PH-103, ATCC 231 basal medium, 27° C. It is filed as cell-based, Agrobacterium sp. As for the experimental part: The culture was incubated at 27° C. and records of the results were made after suitable incubation times. All media were prepared with 2.7% Instant Ocean Salts and pH was approximately neutral (7-7.4). The description of the culture and test results are as follows: […]

Converted amounts (≈) assume the structure as drawn. “And” between values parts separate entries of the source, which are not always exact repeats. Identical values can stand only once. Like-named read-outs stand apart in the source and are kept apart here.

Consider `O=P1(N(CCCl)CCCl)NCCCO1` (stereo not drawn) [Cyclophosphamide, cyclophosphamide], for which, in data set [1], the “Alive Day 8” value is 100% and 60%; the “Optimal Dose” value amounted to 200.0 mg/kg; the Index is 0.23 and 0.28.
On to `C=C1COC(O)(C2OCOC(C3CC(=O)NC(=O)C3)C2O)C1C` (stereo not drawn) [Sesbanimide, sesbanimide], for which the IC50 in data set [2] (Mus musculus, Lymphocyte) is 0.417 µg/mL (≈ 1.27 µM); in data set [5] (in vitro cell-mediated immune response, text summary of Table 4, read-out: biological activity IC50), 0.00015 to 0.0036 µg/mL (≈ 0.000458 to 0.011 µM); in data set [5] (murine two-way MLR, 96 h incubation, 15 h 3H-Thy pulse, read-out: MLR IC50) it was 0.00015 µg/mL (≈ 0.000458 µM). This compound came in with an IC50 at 4 h in data set [3] of 0.417 to 3.6 µg/mL (≈ 1.27 to 11 µM). Besides, the “Alive Day 8” value in data set [1] worked out at 40%. Moreover, the “Optimal Dose” value in data set [1] amounted to 0.2 mg/kg. Further, the Index in data set [1] was 0.92. The “Maximum Tolerated” value with CD-1 or CB6F1 Mice (CD-1 or CB6F1 mice) was found to be 0.56 mg/kg. Also, the “Alive Day 5” value in the data set on CD-1 or CB6F1 Mice (at maximum tolerated dose, CD-1 or CB6F1 mice) was 100%. This compound also returned an LD50 determination with CD-1 or CB6F1 Mice (between 1.05 and 0.56 mg/kg/total dose, QD 1-7 experiment in CB6F1 mice) of 0.805 mg/kg/total dose. Further, in the data set on CD-1 or CB6F1 Mice (pure compound at 56, 10.5 and 5.6 mg/kg), the toxicity result is “toxic”. Further, the “total dose showing no toxicity” value in the data set on CD-1 or CB6F1 Mice (pure compound, in vivo) is reported as at most 0.56 mg/kg. In data set [4], the LD50 at 7 days came out at 0.805 mg/kg. Moreover, the “separation of cytotoxicity to biological activity” value in data set [5] (LcV vs MLR) is over 3 log. The “Index Cytotox./Activity” value in data set [5] was 2,777.
As to `CCn1cc(C(=O)O)c(=O)c2ccc(C)nc21` [nalidixic acid], the Antibiotic sensitivity entry in data set [6] is given as “Sensitive”.
As to `CN[C@H](CC(C)C)C(=O)N[C@H]1C(=O)N[C@@H](CC(N)=O)C(=O)N[C@H]2C(=O)N[C@H]3C(=O)N[C@H](C(=O)N[C@H](C(=O)O)c4cc(O)cc(O)c4-c4cc3ccc4O)[C@H](O)c3ccc(c(Cl)c3)Oc3cc2cc(c3O[C@@H]2O[C@H](CO)[C@@H](O)[C@H](O)[C@H]2O[C@H]2C[C@](C)(N)[C@H](O)[C@H](C)O2)Oc2ccc(cc2Cl)[C@H]1O` [vancomycin], the Antibiotic sensitivity result in data set [6] is on record as “resistant”.
Turning to polymyxin, the Antibiotic sensitivity entry in data set [6] was “resistant”.
Take sesbanimide: the “LcV IC50” value in data set [2] stood at 13.100 µg/mL. For the same compound, in data set [5] (murine two-way MLR, 96 h incubation, 15 h 3H-Thy pulse), the “MLR IC50” value is under 0.0075 µg/mL. Also, in data set [5], the “Index Cytotox./Activity” value is listed as >1,746.

Values taken from patent US20010039041A1, “Immunosuppressive sesbanimide compositions and methods of treatment using same” (priority 1995, published 2001).
